ChEMBL document CHEMBL5727462, “Benzimidazole derivates useful as inhibitors of mammalian histone deacetylase activity” (2019)
pIC50: −log10 of the molar value.

Target: T1, Protein deacetylase HDAC6 (Homo sapiens, UniProt Q9UBN7)
T1 sequence (Q9UBN7 whole entry): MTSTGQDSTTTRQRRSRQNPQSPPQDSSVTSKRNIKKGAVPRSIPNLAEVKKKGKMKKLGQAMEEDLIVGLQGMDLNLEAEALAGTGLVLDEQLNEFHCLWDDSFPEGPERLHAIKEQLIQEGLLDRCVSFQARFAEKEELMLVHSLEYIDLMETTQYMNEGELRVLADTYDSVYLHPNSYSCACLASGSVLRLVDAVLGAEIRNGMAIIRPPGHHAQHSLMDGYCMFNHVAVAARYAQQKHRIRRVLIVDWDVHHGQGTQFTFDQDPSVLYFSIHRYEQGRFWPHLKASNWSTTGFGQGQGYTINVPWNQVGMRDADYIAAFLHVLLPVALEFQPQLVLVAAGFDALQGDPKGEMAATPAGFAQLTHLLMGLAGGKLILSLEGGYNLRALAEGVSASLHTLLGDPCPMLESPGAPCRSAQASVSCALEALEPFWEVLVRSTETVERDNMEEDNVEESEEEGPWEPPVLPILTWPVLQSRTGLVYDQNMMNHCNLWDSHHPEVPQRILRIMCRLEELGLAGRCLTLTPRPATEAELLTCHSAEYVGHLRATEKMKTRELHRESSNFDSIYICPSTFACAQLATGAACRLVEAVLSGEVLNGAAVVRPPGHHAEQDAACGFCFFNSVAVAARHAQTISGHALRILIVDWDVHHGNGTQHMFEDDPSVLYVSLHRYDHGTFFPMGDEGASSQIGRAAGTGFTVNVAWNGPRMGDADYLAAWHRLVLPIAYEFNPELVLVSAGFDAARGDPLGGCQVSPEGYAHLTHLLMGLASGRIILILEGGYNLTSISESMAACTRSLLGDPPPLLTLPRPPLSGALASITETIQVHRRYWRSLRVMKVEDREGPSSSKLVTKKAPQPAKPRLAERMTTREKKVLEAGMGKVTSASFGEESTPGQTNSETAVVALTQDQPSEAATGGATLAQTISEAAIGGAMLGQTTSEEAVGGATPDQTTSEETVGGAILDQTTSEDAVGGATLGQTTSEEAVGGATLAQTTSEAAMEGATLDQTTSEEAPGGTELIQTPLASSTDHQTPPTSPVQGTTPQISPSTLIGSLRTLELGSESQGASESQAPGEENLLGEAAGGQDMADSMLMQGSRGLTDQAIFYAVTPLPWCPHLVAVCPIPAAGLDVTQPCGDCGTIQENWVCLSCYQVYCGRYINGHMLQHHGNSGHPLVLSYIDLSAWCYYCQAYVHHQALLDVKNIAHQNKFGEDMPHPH
Assay: In vitro enzymatic HDACs assays: All Examples were tested in HDAC1, 2, 3, 6 and 8 in vitro enzymatic assays. The assay principle is well known (Hauser et al. 2009, Bradner et al. 2010) and all necessary reagents like enzymes, substrates, developer and reference compounds are commercially available (see e.g. BPS Biosciences http://www.bpsbioscience.com/). A series of dilutions of the compounds were prepared with a top concentration of 200 μM (2 μM for HDAC6). The enzymatic reactions were conducted in a mixture containing assay buffer, bovine serum albumin, HDAC substrate, and a test compound. After enzymatic reaction, developer was added and after an additional incubation time, fluorescence intensity was measured at an excitation wavelength of 360 nm and an emission wavelength of 460 nm. A selection of the Examples were tested in a full HDAC panel containing HDAC1, 2, 3, 4, 5, 6, 7, 8, 9, 10 and 11 in vitro enzymatic assays. The tests were performed as above except that a series of dilutions of the compounds were prepared with a top concentration of 10 μM for all HDACs.

pIC50: 7.72
SMILES: O=C(NO)c1ccc2nc(-c3ccc(-c4ccccc4)c(F)c3)[nH]c2c1
